Results taken from patent publication US11312693B2, “Protease inhibitors” (MEDIVIR AB, priority 2008, dated 2022).

Tests used:
[1] = In vivo mouse PK, oral administration (FIG. 1); parameters: species or system male C57BI mice; settings: 60 μmol/kg in 1% Methocel A4C, versus Example 2 of WO2008 007107
Excerpt: FIG. 1 depicts plasma concentration against time for male C57BI mice orally administered a compound of the invention or a compound of the prior art.
Various embodiments of the invention will now be described by way of illustration only with reference to the following Examples and FIG. 1 which depicts plasma concentration against time for male C57BI mice orally administered a compound of the invention or a compound of the prior art.

[2] = Metabolic stability in whole blood; assay type: in vitro ADME; settings: from CLint
Protocol: Compounds of the invention and the indicated comparative examples were tested for metabolic stability in a cytosol assay in which the compounds were incubated with commercially available human hepatic cytosol fractions and the disappearance of the compound monitored by HPLC or LC/MS. Pooled human liver cytosol fractions are less likely to represent outlier individuals than blood from a single individual and can be stored frozen, unlike whole blood. The cytosol assay thus provides a consistent assay testbed as a guide to the stability of a compound in the in vivo environment, such as when exposed to whole blood.
In short, test compounds (2 μM) are incubated in pooled human liver cytosol (Xenotech LLC Lenexa US, 1 mg/mL protein in 0.1M phosphate buffer, pH 7.4) at 37° centigrade over a one hour period. The incubations are initiated by the addition of 1 mM NADPH co-factor. Timed sub-samples were taken at 0, 20, 40 and 60 minutes and “crash precipitated” by the addition of 3 volumes of ice-cold acetonitrile. The samples were centrifuged at reduced temperature and the supernatants were separated and analyzed by LC-MS-MS.
Alternatively, an analogous stability assay is carried out in human or monkey whole blood and/or commercially available liver microsomes, such as XEN 025.

| SMILES | in vivo exposure (whether measured as Cmax or AUC) [1] | estimated / calculated whole blood half life [2] |
| --- | --- | --- |
| C#C[C@@H]1CN(C(=O)[C@H](CC(C)C)NC(=O)c2ccc(-c3nc(N4CCN(C)CC4)sc3F)cc2)[C@@H]2C(=O)CO[C@H]12 [Example 2, N-[1-6-(ethynyl-3-oxo-hexahydro-furo[3,2-b]pyrrole-4-carbonyl)-3-methyl-butyl]-4-[5-fluoro-2-(4-methyl-piperazin-1-yl)thiazol-4-yl]-benzamide] | very much greater |  |
| CC(C)C[C@H](NC(=O)c1ccc(-c2csc(N3CCN(C)CC3)n2)cc1)C(=O)N1C[C@@H](C)[C@H]2OCC(=O)[C@H]21 [comparative example] |  | little over an hour |
